Measured values: US20050238666A1, “Methods of enhancing stem cell engraftment” (priority 2003, published 2005)

Tests used:
[1] = tested on: hematopoietic progenitor cells; experiment: Colony assay in methylcellulose (CFU) of transduced bone marrow progenitor cells; format: cell-based, mouse; conditions: expression of the transgene in the cells; FIG. 9
Description: Mouse Low Density Bone Marrow (LDBM) Isolation and Viral Transduction: Whole bone marrow was collected from C57B1/6 animals (Jackson Laboratory, Bar Harbor, Me.), 48 h after treatment with 5-fluorouracil (150 mg/kg of body weight, IP; American Pharmaceutical Partners, Los Angeles, Calif.) and was re-suspended in RPMI medium (Life Technologies, Inc.). Bone marrow cells were obtained from the animals, and low-density, mononuclear bone marrow (LDBM) cells are isolated from fresh bone marrow (BM) by density centrifugation on Histopaque-1083 (Sigma, […].) gradient for 20 min at 1,700 rpm at room temperature. Cells at the interface were collected and washed twice with Roswell Park Memorial Institute (RPMI) Media and then counted on a hemocytometer. […] Cells were subsequently analyzed and sorted for green fluorescence protein (GFP) using a Fluorescence Activated Cell Sorting (FACS) (Becton Dickinson, San Jose, Calif.). […]
The transduction efficiency of the cells was tested using the following assay: Colony assay: 2×10^4 cells re-suspended in 4 mL complete methylcellulose (Metho Cult™ GF M3434, Stem Cell Technologies) were plated in 35 mm grided non-tissue culture dishes (Nalge Nunc Int.) (1 mL/dish). The colonies were scored after 10 days incubation in 5% CO2 at 37° C. […]

hematopoietic stem cells = experiment: In vivo transplantation and engraftment study (EGFP+ cells by FACS and CFU); set-up: species or system C57BL/6 mice
Description: FIG. 2 is a graphical representation of the experimental design showing the design for injecting mice with bone marrow cells. The peripheral blood (PB) cells were tested for EGFP+ cells by FACS analysis and the bone marrow (BM) cells were tested for EGFP+ cells by FACS analysis and by CFU assay.
4×10^5 cells were injected into C57BL/6 mice (8-10 weeks old). Prior to the transplant, the mice were irradiated with 11.75 Gy in split dose (7 Gy and 4.75 Gy) using a Cs^137 source with a minimum of 3 h between doses. For engraftment studies, 100 μL tail vein blood samples were withdrawn from each transplanted mouse every 4 weeks. Peripheral blood cells were incubated in red blood cell lysis buffer (Pharmingen, San Diego, Calif.) for […] at room temperature. Cells were then washed twice and re-suspended in 1 ml of PBS and 0.2% bovine serum albumin (BSA) (Roche Applied Sciences, Indianapolis, Ind.). The percentages of GFP^+ cells of each sample were analyzed by flow cytometry. Sixteen weeks post transplant bone marrow and spleen were isolated from the experimental animals. Cells isolated from these organs were incubated in red blood cells lysis buffer, re-suspended in PBS, 0.2% BSA and analyzed by flow cytometry, as described above.
The ability of hematopoietic progenitor cells to form colonies was analyzed in the presence of various transgenes expressing normal and mutated forms of GTPases. […]

| Substance | ability of hematopoietic progenitor cells to form colonies [1] | engraftment: EGFP+ peripheral blood cells in transplanted animals (hematopoietic stem cells; 3, 7, 11 and 16 weeks post transplant, normalized to control cells at 3 weeks, FIG. 6) | stem cell (HSC) engraftment (hematopoietic stem cells; peripheral blood, bone marrow, spleen, CFU, secondary transplant, FIGS. 6, 8, 9 and 10) |
| --- | --- | --- | --- |
| Cdc42N17: dominant negative Cdc42 cDNA cloned into a murine stem cell virus-based bicistronic EGFP vector | not affected | – | – |
| RhoAN19: dominant negative mouse RhoA protein with threonine to asparagine point mutation at position 19, expressed from retroviral vector | not affected | advantageous | advantageous |
